From patent US7371889B2, “Chemical entities with multiple modes of anti-inflammatory action” (Sami Labs Limited, priority 2002, dated 2008)

Assays:
[1] = system: T cells; test: In vitro proliferation of T cells from draining lymph nodes after concanavalin A stimulation, tritiated thymidine incorporation; assay type: cell-based; conditions: T cells isolated day 22 from treated rats, thymidine uptake
Procedure: (§1) Hindpaw swelling (days 3, 7, 11, 14, 17, 21) and nociception (days 15 and 21) were measured. On day 22 rats were sacrificed, draining lymph nodes were removed and T cells isolated. In vitro proliferation of T cells following stimulation with concanavalin A (0.5-5 mcg/mL) was measured using a tritiated thymidine incorporation assay.
IL-2 receptor expression on T cells was measured by FACS analysis. […] T cells were isolated and characterized by FACS analysis.

[2] = system: Freund's adjuvant (FA) arthritis; test: Freund's adjuvant (FA) arthritis in rats, nociception; assay type: in vivo; conditions: oral administration, dose giving the same extent of inhibition
Procedure: as §1, with “Freund's adjuvant (FA) arthritis was induced in rats by a single intraplantar injection into the right hindpaw of 100 microl of Mycobacterium butirricum (6 mg/mL). […] Hindpaw” for “Hindpaw”

SMILES | order of activity, inhibition of T-cell proliferation [1] | dose at which anti-nociceptive [2] [mg/kg]
CC(=O)O[C@@H]1CC[C@@]2(C)[C@@H](CC[C@]3(C)[C@@H]2C(=O)C=C2[C@@H]4[C@@H](C)[C@H](C)CC[C@]4(C)CC[C@]23C)[C@@]1(C)C(=O)O [AKBBA, 3-acetyl-11-keto-β-boswellic acid, reference compound] | SA-041>SA-040>N>1>AKBBA | 
CC(=O)OC1CCC2(C)C(CCC3(C)C2C(=O)C=C2C4C(C)C(C)CCC4(C)CCC23C)C1(C)C(=O)OCCl (stereo not drawn) [Example 1, 3-Acetyl-11-keto-β-boswellic acid chloromethyl ester] | SA-041>SA-040>N>1>AKBBA | 
COc1ccc2cc([C@H](C)C(=O)O)ccc2c1 [N, Naproxen, reference compound] | SA-041>SA-040>N>1>AKBBA | 
CC(=O)O[C@@H]1CC[C@@]2(C)[C@@H](CC[C@]3(C)[C@@H]2C(=O)C=C2[C@@H]4[C@@H](C)[C@H](C)CC[C@]4(C)CC[C@@]23C)[C@@]1(C)C(=O)OCOC(=O)C(C)c1ccc(CC(C)C)cc1 (some centres unmarked) [SA-040, AKBBA-Ibuprofen conjugate] | SA-041>SA-040>N>1>AKBBA | 5.9
